Data from patent US20240067693A1, “POLYPEPTIDES AND USES THEREOF” (MEDIMMUNE LIMITED, priority 2020, published 2024).
Numbered stars: 1 amine (or outer) side, 2 acyl side, 3 side chain; on linkers, the order of the positions; unused ones are H or OH. Bridge positions count the residues as written; N and C are the ends. Square brackets hold non-standard residues; d marks the D form. Side chains are listed from the residue outwards. Peptide text beside a SMILES is read from it. * marks the point of attachment. C18 diacid = O=C(O)CCCCCCCCCCCCCCCCC(=O)*; γGlu = O=C(O)[C@H](CCC(=O)[*:2])N[*:1]; Aib = CC(C)(N)C(=O)O

What was measured:
[1] = biological target: T1, human amylin receptor (calcitonin receptor co-expressed with receptor activity modifying protein, RAMP3) (hAMYR3) (Homo sapiens, UniProt O60896+P30988); assay: cAMP production in 1321N1 cells with stable recombinant expression of human amylin receptor (hAMYR3); type: cell-based; conditions: for Ratio (selectivity hAMYR vs hCTR, ratio of EC50 values at the two receptors): EC50 hCTR / EC50 hAMYR3; for EC50: cAMP, 1321N1 cells, assay buffer with 0.1% BSA, read-out: EC50 (pM) hAMYR3
T1 construct: expressed in transfected cells
T1 sequence (P30988 25-474): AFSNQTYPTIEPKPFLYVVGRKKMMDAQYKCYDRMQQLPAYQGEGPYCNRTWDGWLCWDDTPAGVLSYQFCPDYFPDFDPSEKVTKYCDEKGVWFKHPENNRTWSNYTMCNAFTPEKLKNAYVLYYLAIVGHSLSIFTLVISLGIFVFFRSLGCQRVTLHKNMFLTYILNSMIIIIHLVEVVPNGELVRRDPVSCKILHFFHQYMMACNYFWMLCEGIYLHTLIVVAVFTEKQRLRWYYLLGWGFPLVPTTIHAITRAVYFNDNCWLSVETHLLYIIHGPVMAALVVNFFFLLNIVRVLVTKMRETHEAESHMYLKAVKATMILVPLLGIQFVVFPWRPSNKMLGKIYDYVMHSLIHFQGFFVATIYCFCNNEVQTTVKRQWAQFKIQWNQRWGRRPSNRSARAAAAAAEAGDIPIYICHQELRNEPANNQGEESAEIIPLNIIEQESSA
T1 sequence (O60896 24-148 partner): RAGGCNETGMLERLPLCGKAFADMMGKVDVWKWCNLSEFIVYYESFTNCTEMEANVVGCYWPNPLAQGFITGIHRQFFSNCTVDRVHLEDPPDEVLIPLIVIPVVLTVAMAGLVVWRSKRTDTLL
Procedure, shortened: (§1)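 Thawed cells in HBSS/0.1% BSA/25 mM HEPES pH 7.4 with 0.5 mM IBMX were incubated with peptides 30 min at room temperature; cAMP read by HTRF. EC50 from 4-parameter fit of % activation relative to maximal amylin or calcitonin effect.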

[2] = biological target: T2, human calcitonin receptor (hCTR) (Homo sapiens, UniProt P30988); assay: cAMP production in 1321N1 cells with stable recombinant expression of human calcitonin receptor (hCTR); type: cell-based; conditions: cAMP, 1321N1 cells, assay buffer with 0.1% BSA; read-out: EC50 (pM) hCTR
T2 construct: expressed in transfected cells
T2 sequence (P30988 25-474): T1 sequence (P30988 25-474)
Procedure, shortened: as §1

| Ratio (selectivity hAMYR vs hCTR, ratio of EC50 values at the two receptors) [1] | EC50 [1] [pM] | EC50 [2] [pM] | SMILES |
| --- | --- | --- | --- |
| 99 | 161 | 16000 | CC[C@H](C)[C@H](NC(=O)[C@@H]1CCCN1C(=O)CNC(=O)[C@H](Cc1ccccc1)NC(=O)[C@H](CC(N)=O)NC(=O)C(C)(C)NC(=O)[C@H](CO)NC(=O)[C@H](CO)NC(=O)[C@H](Cc1c[nH]cn1)NC(=O)[C@H](CCCNC(=N)N)NC(=O)[C@H](CC(C)C)NC(=O)[C@H](Cc1ccccc1)NC(=O)[C@H](CC(N)=O)NC(=O)[C@H](C)NC(=O)[C@H](CC(C)C)NC(=O)[C@H](CCCNC(=N)N)NC(=O)[C@H](CCC(N)=O)NC(=O)[C@@H](NC(=O)[C@H](C)NC(=O)[C@@H]1CSSC[C@H](NC(=O)[C@@H](N)CCCCNC(=O)CC[C@H](NC(=O)CC[C@H](NC(=O)CCCCCCCCCCCCCCCCC(=O)O)C(=O)O)C(=O)O)C(=O)N[C@@H](CC(N)=O)C(=O)N[C@@H]([C@@H](C)O)C(=O)N[C@@H](C)C(=O)N[C@@H]([C@@H](C)O)C(=O)N1)[C@@H](C)O)C(=O)N[C@@H](CC(C)C)C(=O)N1CCC[C@H]1C(=O)N1CCC[C@H]1C(=O)N[C@H](C(=O)N[C@@H](CC(N)=O)C(=O)N[C@H](C(=O)NCC(=O)N[C@@H](CO)C(=O)N[C@@H](CC(N)=O)C(=O)N[C@H](C(=O)N[C@@H](Cc1ccc(O)cc1)C(N)=O)[C@@H](C)O)C(C)C)[C@@H](C)O [Peptide 75, K(γE-γE-C18diacid)[CNTATC]ATQRLANFLRHSS(Aib)NFGPILPPTNVGSNTY-amide] (H-K([γGlu-γGlu-C18 diacid])CNTATCATQRLANFLRHSS[Aib]NFGPILPPTNVGSNTY-NH2; disulfide 2-7) |
| 107 | 209 | 22300 | CC[C@H](C)[C@H](NC(=O)[C@@H]1CCCN1C(=O)CNC(=O)[C@H](Cc1ccccc1)NC(=O)[C@H](CC(N)=O)NC(=O)C(C)(C)NC(=O)[C@H](CO)NC(=O)[C@H](CO)NC(=O)[C@H](Cc1c[nH]cn1)NC(=O)[C@H](CCCNC(=N)N)NC(=O)[C@H](CC(C)C)NC(=O)[C@H](Cc1ccccc1)NC(=O)[C@H](CC(N)=O)NC(=O)[C@H](C)NC(=O)[C@H](CC(C)C)NC(=O)[C@H](CCCNC(=N)N)NC(=O)[C@H](CCC(N)=O)NC(=O)[C@@H](NC(=O)[C@H](C)NC(=O)[C@@H]1CSSC[C@H](NC(=O)[C@@H](N)CCCCNC(=O)CC[C@H](NC(=O)CCCCCCCCCCCCCCCCC(=O)O)C(=O)O)C(=O)N[C@@H](CC(N)=O)C(=O)N[C@@H]([C@@H](C)O)C(=O)N[C@@H](C)C(=O)N[C@@H]([C@@H](C)O)C(=O)N1)[C@@H](C)O)C(=O)N[C@@H](CC(C)C)C(=O)N1CCC[C@H]1C(=O)N1CCC[C@H]1C(=O)N[C@H](C(=O)N[C@@H](CCCNC(=N)N)C(=O)N[C@H](C(=O)NCC(=O)N[C@@H](CO)C(=O)N[C@@H](CC(N)=O)C(=O)N[C@H](C(=O)N[C@@H](Cc1ccc(O)cc1)C(N)=O)[C@@H](C)O)C(C)C)[C@@H](C)O [Peptide 76, K(γE-C18diacid)[CNTATC]ATQRLANFLRHSS(Aib)NFGPILPPTRVGSNTY-amide] (H-K([γGlu-C18 diacid])CNTATCATQRLANFLRHSS[Aib]NFGPILPPTRVGSNTY-NH2; disulfide 2-7; N-terminus assumed) |
| 11 | 231 | 2520 | CC[C@H](C)[C@H](NC(=O)[C@@H]1CCCN1C(=O)CNC(=O)[C@H](Cc1ccccc1)NC(=O)[C@H](CC(N)=O)NC(=O)C(C)(C)NC(=O)[C@H](CO)NC(=O)[C@H](CO)NC(=O)[C@H](Cc1c[nH]cn1)NC(=O)[C@H](CCCNC(=N)N)NC(=O)[C@H](CC(C)C)NC(=O)[C@H](Cc1ccccc1)NC(=O)[C@H](CC(N)=O)NC(=O)[C@H](C)NC(=O)[C@H](CC(C)C)NC(=O)[C@H](CCCNC(=N)N)NC(=O)[C@H](CCC(N)=O)NC(=O)[C@@H](NC(=O)[C@H](C)NC(=O)[C@@H]1CSSC[C@H](NC(=O)[C@@H](N)CCCCNC(=O)CC[C@H](NC(=O)CC[C@H](NC(=O)CCCCCCCCCCCCCCCCC(=O)O)C(=O)O)C(=O)O)C(=O)N[C@@H](CC(N)=O)C(=O)N[C@@H]([C@@H](C)O)C(=O)N[C@@H](C)C(=O)N[C@@H]([C@@H](C)O)C(=O)N1)[C@@H](C)O)C(=O)N[C@@H](CC(C)C)C(=O)N1CCC[C@H]1C(=O)N1CCC[C@H]1C(=O)N[C@H](C(=O)N[C@@H](CCCNC(=N)N)C(=O)N[C@H](C(=O)NCC(=O)N[C@@H](CO)C(=O)N[C@@H](CC(N)=O)C(=O)N[C@H](C(=O)N[C@@H](Cc1ccc(O)cc1)C(N)=O)[C@@H](C)O)C(C)C)[C@@H](C)O [Peptide 77, K(γE-γE-C18diacid)[CNTATC]ATQRLANFLRHSS(Aib)NFGPILPPTRVGSNTY-amide] (H-K([γGlu-γGlu-C18 diacid])CNTATCATQRLANFLRHSS[Aib]NFGPILPPTRVGSNTY-NH2; disulfide 2-7; N-terminus assumed) |
| 11 | 288 | 3150 | CC(C)C[C@H](NC(=O)[C@H](CCCNC(=N)N)NC(=O)[C@H](CCC(N)=O)NC(=O)[C@@H](NC(=O)[C@H](C)NC(=O)[C@@H]1CSSC[C@H](NC(=O)[C@H](CCCCN)NC(=O)[C@@H](N)CCCCNC(=O)CC[C@H](NC(=O)CCCCCCCCCCCCCCCCC(=O)O)C(=O)O)C(=O)N[C@@H](CC(N)=O)C(=O)N[C@@H]([C@@H](C)O)C(=O)N[C@@H](C)C(=O)N[C@@H]([C@@H](C)O)C(=O)N1)[C@@H](C)O)C(=O)N[C@@H](C)C(=O)N[C@@H](CC(N)=O)C(=O)N[C@@H](Cc1ccccc1)C(=O)N[C@@H](CC(C)C)C(=O)N[C@H](C(=O)N[C@@H](Cc1c[nH]cn1)C(=O)N[C@@H](CO)C(=O)N[C@@H](CO)C(=O)NC(C)(C)C(=O)N[C@@H](CC(N)=O)C(=O)N[C@@H](Cc1ccccc1)C(=O)NCC(=O)N1CCC[C@H]1C(=O)NC(C)(C)C(=O)N[C@@H](CC(C)C)C(=O)N1CCC[C@H]1C(=O)N1CCC[C@H]1C(=O)N[C@H](C(=O)N[C@@H](CC(N)=O)C(=O)N[C@H](C(=O)NCC(=O)N[C@@H](CO)C(=O)N[C@@H](CC(N)=O)C(=O)N[C@H](C(=O)N[C@@H](Cc1ccc(O)cc1)C(N)=O)[C@@H](C)O)C(C)C)[C@@H](C)O)C(C)C [Peptide 78, K(γE-C18diacid)K[CNTATC]ATQRLANFLVHSS(Aib)NFGP(Aib)LPPTNVGSNTY-amide] (H-K([γGlu-C18 diacid])KCNTATCATQRLANFLVHSS[Aib]NFGP[Aib]LPPTNVGSNTY-NH2; disulfide 3-8; N-terminus assumed) |
| 7 | 659 | 4800 | CC[C@H](C)[C@H](NC(=O)[C@@H]1CCCN1C(=O)CNC(=O)[C@H](Cc1ccccc1)NC(=O)[C@H](CC(N)=O)NC(=O)C(C)(C)NC(=O)[C@H](CO)NC(=O)[C@H](CO)NC(=O)[C@H](Cc1c[nH]cn1)NC(=O)[C@@H](NC(=O)[C@H](CC(C)C)NC(=O)[C@H](Cc1ccccc1)NC(=O)[C@H](CC(N)=O)NC(=O)[C@H](C)NC(=O)[C@H](CC(C)C)NC(=O)[C@H](CCCNC(=N)N)NC(=O)[C@H](CCC(N)=O)NC(=O)[C@@H](NC(=O)[C@H](C)NC(=O)[C@@H]1CSSC[C@H](NC(=O)[C@H](CCCCN)NC(=O)[C@@H](N)CCCCNC(=O)CC[C@H](NC(=O)CCCCCCCCCCCCCCCCC(=O)O)C(=O)O)C(=O)N[C@@H](CC(N)=O)C(=O)N[C@@H]([C@@H](C)O)C(=O)N[C@@H](C)C(=O)N[C@@H]([C@@H](C)O)C(=O)N1)[C@@H](C)O)C(C)C)C(=O)NC(C)(C)C(=O)N1CCC[C@H]1C(=O)N1CCC[C@H]1C(=O)N[C@H](C(=O)N[C@@H](CC(N)=O)C(=O)N[C@H](C(=O)NCC(=O)N[C@@H](CO)C(=O)N[C@@H](CC(N)=O)C(=O)N[C@H](C(=O)N[C@@H](Cc1ccc(O)cc1)C(N)=O)[C@@H](C)O)C(C)C)[C@@H](C)O [Peptide 79, K(γE-C18diacid)K[CNTATC]ATQRLANFLVHSS(Aib)NFGPI(Aib)PPTNVGSNTY-amide] (H-K([γGlu-C18 diacid])KCNTATCATQRLANFLVHSS[Aib]NFGPI[Aib]PPTNVGSNTY-NH2; disulfide 3-8) |
